Measured values reported in patent US20060008574A1, “Galactosyl isomalt, method for production and use thereof” (priority 2002, published 2006).
Read-outs that look alike come from different tables or passages of the source.

How the values were obtained:
[1] = Stability in the stomach: hydrolysis rate at pH 2.0; format: physicochemical; details: 1% solution, 10 mmol/L hydrochloric acid, pH 2.0, 37° C.
Protocol: The stability of a substance in the gastric passage can be simulated by determining the hydrolysis rate at pH 2.0. Sucrose and 1-kestose are used as controls.
In each case a 1% solution of the trisaccharides (DP 3) from Example 4 is incubated with 10 mmol/L hydrochloric acid, pH 2.0 at 37° C. for 3 h. Samples are taken from the reaction mixture after 60, 120 and 180 min and are analyzed by basic anion exchange chromatography, HPAEC.

[2] = tested on: pancreatin enzyme (Sigma); assay: Stability with respect to pancreatic enzymes; format: in vitro ADME; details: 1% solution, 0.2% pancreatin, pH 7.0, 210 min at 37° C.
Protocol: The pancreatic secretion contains a large number of hydrolases, including carbohydrate-degrading enzymes like α-amylase, which breaks down α-1,4-glucans (starch, glycogen) preferably to maltose and maltooligosaccharides. The test of the stability of saccharides with respect to pancreatic enzymes is carried out as follows.
3.0 mL of a carbohydrate solution (solution 2 to solution 6) is mixed with 0.1 mL of the enzyme solution (solution 7) per batch:
Solution 1: 20 mmol/L Na phosphate buffer, pH 7.0, with 6 mmol/L NaCl
Solution 2: 1% solution of β-1,4-galactosyl isomalt mixture in accordance with the invention, prepared according to Example 2 and Example 4, in solution 1
Solution 3: 1% solution of β-1,3-galactosyl isomalt mixture in accordance with the invention, prepared according to Example 1 and Example 4, in solution 1
Solution 4: 1% solution of β-1,6-galactosyl isomalt mixture in accordance with the invention; prepared according to Example 3 and Example 4, in solution 1
Solution 6: 1% starch solution (soluble starch, according to Zulkowski), in solution 1
Solution 7: 0.2% pancreatin enzyme (Sigma), dissolved in solution 1
After 210 min incubation in a thermomixer (interval shaking) at 37° C., the reaction is stopped by heating to 95° C. for 15 min and the samples are analyzed by HPAEC. The starch-containing sample (solution6+solution 7) is completely hydrolyzed before the HPAEC analysis by heating for 3 h in 1 mol/L hydrochloric acid at 95° C., and the glucose resulting from this is determined in order to calculate the starch content of the sample.

lactase = assay: Stability with respect to lactase; format: in vitro ADME; details: 0.9 unit lactase, 1% solution, 37° C., 6 h
Source text: The enzyme lactase that is present at the mucosa in the small intestine serves in vivo to break down lactose that gets into the small intestine and the resulting monosaccharides are absorbed into the bloodstream through the intestinal wall.
The enzyme lactase is isolated in a modified method of Wallenfels, K., and Fischer, J. (Z. Physiologische Chemie 321 (1960) 223).
Solutions 1-5: see Example 8c)
Solution 6: 1% solution of lactose in solution 1
Solution 7: 1% solution of isomalt in solution 1
Solution 8: Lactase in solution 1
(solutions 2-7), mixed and incubated at 37° C. The reaction is stopped after 6 h by heating to 95° C. for 15 min.

human feces = assay: In vitro fermentation in human feces; format: cell-based; details: for Degradation rate: 0.5% (w/v) substrate, feces suspension, anaerobic, 37° C.; for Butyrate content (end sample): end of fermentation with human feces
Protocol: Incubation of carbohydrates with human feces allows statements to be made about the rate of metabolization by the bacterial population and formation of the short-chain fatty acid butyric acid.
To invest the fermentability in an in vitro fermentation experiment, Raftilose® P95 (fructooligosaccharides, DP4-5), galactosyl lactose (Oligomate DP 3) and lactosucrose were used for comparison as carbohydrates of similar structure and degree of polymerization, in addition to β-galactosyl isomalts.
An anaerobic medium of the following composition was used for the in vitro experiments:
9 mL of the anaerobic medium 1 described above are mixed with 0.5% (w/v) of the galactosyl isomalts to be tested (prepared according to Examples 1-3) and the corresponding controls lactosucrose and galactosyl lactose and then inoculated with 1 mL of a 10% feces suspension (mixed feces from two subjects) in anaerobic 50 mmol/L phosphate buffer, pH 7.0, to which 0.5 g/L cysteine/HCl was added beforehand as reducing agent.
The batches are then incubated in “Hungate” test tubes for a maximum of 28 h while shaking at 37° C. Samples are taken at various times and tested for content of residual oligosaccharides, short-chain fatty acids, lactic acid and pH.

[3] = tested on: glucoamylase/maltase (GM complex); assay: Stability with respect to small intestine α-glucosidases: glucoamylase/maltase; details: 120 min incubation
Protocol: (§1) Solution 1: 0.1 mol/L triethanolamine (TEA) buffer, pH 7.0
(§2) Solution 11: Glucoamylase/maltase enzyme complex in solution 1
(§3) i) 0.7 unit of the enzyme complex saccharase/isomaltase (solution 10) or glucoamylase/maltase (solution 11) was added in each case to 1.0 mL of a carbohydrate solution heated to 37° C. (solution 2 to solution 8), mixed and incubated at 37° C.
(§4) ii) For incubation under more severe conditions, 16 units of the enzyme complex saccharase/isomaltase or 13 units of the enzyme complex glucoamylase/maltase were used. The reaction was stopped after 2 h by heating to 95° C. for 15 min. The resulting monosaccharides and the undegraded saccharides of the relevant batches were quantitatively determined by HPAEC.

[4] = target: saccharase/isomaltase (SI complex) (Sus scrofa, UniProt P56729); assay: Stability with respect to small intestine α-glucosidases: saccharase/isomaltase; details: 120 min incubation
saccharase/isomaltase (SI complex), sequence (P56729 with tags, fused parts or gaps limits assumed): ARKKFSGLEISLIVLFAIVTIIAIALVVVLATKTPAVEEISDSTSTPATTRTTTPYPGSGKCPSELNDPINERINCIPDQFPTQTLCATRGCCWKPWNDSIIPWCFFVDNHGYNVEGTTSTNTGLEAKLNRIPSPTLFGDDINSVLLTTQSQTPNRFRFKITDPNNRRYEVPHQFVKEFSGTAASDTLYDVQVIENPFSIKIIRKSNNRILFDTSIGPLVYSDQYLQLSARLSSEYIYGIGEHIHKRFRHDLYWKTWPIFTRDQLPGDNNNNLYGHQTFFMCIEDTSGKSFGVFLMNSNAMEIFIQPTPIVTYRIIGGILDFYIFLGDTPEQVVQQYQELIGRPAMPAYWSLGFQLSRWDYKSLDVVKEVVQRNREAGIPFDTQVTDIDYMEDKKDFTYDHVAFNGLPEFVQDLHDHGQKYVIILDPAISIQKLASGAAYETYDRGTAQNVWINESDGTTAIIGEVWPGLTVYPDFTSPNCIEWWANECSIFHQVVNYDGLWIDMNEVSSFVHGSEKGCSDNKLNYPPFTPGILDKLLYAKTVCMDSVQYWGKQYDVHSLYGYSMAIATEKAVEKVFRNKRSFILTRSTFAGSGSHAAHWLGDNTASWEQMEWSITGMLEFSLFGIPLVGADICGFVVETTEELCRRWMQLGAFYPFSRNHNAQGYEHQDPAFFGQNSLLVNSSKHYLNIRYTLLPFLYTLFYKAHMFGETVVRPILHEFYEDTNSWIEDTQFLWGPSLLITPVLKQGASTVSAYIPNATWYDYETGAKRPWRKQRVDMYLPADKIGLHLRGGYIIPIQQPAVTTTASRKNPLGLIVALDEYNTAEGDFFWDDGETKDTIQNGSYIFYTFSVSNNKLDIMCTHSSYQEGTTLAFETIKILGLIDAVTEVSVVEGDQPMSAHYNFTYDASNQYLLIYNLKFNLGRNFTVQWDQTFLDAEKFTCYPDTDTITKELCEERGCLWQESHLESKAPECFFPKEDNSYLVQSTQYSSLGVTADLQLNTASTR
saccharase/isomaltase (SI complex), sequence (P56729 with tags, fused parts or gaps limits assumed): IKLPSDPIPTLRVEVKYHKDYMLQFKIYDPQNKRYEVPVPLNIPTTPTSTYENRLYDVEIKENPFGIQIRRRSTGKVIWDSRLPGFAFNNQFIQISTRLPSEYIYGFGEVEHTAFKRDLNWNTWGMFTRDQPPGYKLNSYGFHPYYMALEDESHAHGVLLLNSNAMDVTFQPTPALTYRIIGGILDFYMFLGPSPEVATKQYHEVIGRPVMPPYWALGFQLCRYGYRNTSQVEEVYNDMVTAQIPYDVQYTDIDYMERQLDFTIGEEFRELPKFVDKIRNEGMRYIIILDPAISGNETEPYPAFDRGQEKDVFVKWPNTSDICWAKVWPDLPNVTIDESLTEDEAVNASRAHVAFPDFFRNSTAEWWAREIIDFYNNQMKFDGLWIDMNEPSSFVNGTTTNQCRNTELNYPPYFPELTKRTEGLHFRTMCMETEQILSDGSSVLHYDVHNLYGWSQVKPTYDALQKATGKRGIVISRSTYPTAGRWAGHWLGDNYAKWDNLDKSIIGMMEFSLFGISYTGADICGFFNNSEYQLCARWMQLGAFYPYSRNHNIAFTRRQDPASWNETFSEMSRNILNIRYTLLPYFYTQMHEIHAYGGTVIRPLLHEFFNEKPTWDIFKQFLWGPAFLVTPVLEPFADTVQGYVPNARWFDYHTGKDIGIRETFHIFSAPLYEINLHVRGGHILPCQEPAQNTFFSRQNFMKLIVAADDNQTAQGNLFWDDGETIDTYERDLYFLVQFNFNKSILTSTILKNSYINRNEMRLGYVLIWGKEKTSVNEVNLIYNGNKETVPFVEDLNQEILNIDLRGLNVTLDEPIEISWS
Source text: Solution 6: 1% solution of maltose in solution 1
Solution 7: 1% solution of sucrose in solution 1
Solution 8: 1% solution of isomalt in solution 1
Solution 9: 1% solution of isomaltulose in solution 1
Solution 10: Saccharase/isomaltase enzyme complex in solution 1

[5] = tested on: glucoamylase/maltase (GM complex)
Protocol: as §1, §2, §3, §4

[6] = Standard (0.7 unit), 37° C., pH 7.0

Row | Compound | Hydrolysis rate [%] ([1]; incubation time 0 min) | Hydrolysis rate [%] ([1]; incubation time 60 min) | Hydrolysis rate [%] ([1]; incubation time 120 min) | Hydrolysis rate [%] ([1]; incubation time 180 min) | Hydrolysis rate [%], incubation with lactase (lactase) [%] | Degradation rate (human feces; incubation time 7 (h)) [%] | Degradation rate (human feces; incubation time 22 (h)) [%] | Hydrolysis rate [%] [3, 6] | Butyrate content (end sample) (human feces) [mmol/L] | further results
1 | OCC1O[C@@H](O[C@@H]2C(CO)O[C@H](OC[C@@H](O)[C@@H](O)[C@H](O)C(O)CO)C(O)C2O)C(O)C(O)[C@H]1O (mixture of isomers) [β-1,4-Galactosyl isomalt, β-D-galactosyl-(1→4)-α-D-glucosyl-(1→6)-D-sorbitol (β-1,4-galactosyl-1,6-GPS) and β-D-galactosyl-(1→4)-α-D-glucosyl-(1→1)-D-mannitol(β-1,4-galactosyl-1,1-GPM)] | 0 | 0 | 0 | <1 | 13.4 | 61 | 97.7 | 0% | – | Decomposition rate [%] [2]: <1%; Degradation rate (human feces; incubation time 28 (h)): 96%; Hydrolysis rate [%] ([3]; More stringent (13 units)): 0%
2 | OCC1O[C@@H](OCC2O[C@H](OC[C@@H](O)[C@@H](O)[C@H](O)C(O)CO)C(O)C(O)[C@@H]2O)C(O)C(O)[C@H]1O (mixture of isomers) [β-1,6-Galactosyl isomalt, β-D-galactosyl-(1→6)-α-D-glucosyl-(1→6)-D-sorbitol(β-1,6-galactosyl-1,6-GPS) and β-D-galactosyl-(1→6)-α-D-glucosyl-(1→1)-D-mannitol(β-1,6-galactosyl-1,1-GPM)] | 0 | 0 | 0 | <1 | 9.3 | 64.2 | 96.1 | 0% | 15.3 | Decomposition rate [%] [2]: <1%; Degradation rate (human feces; incubation time 28 (h)): 99.2%; Hydrolysis rate [%] ([3]; More stringent (13 units)): 0%
3 | OC[C@H]1O[C@@](CO)(OC[C@@]2(O[C@H]3O[C@H](CO)[C@@H](O)[C@H](O)[C@H]3O)O[C@H](CO)[C@@H](O)[C@@H]2O)[C@@H](O)[C@@H]1O [1-Kestose, reference compound] | 0 | 11 | 25 | 36 | – | – | – | – | – | –
4 | OC[C@H]1O[C@H](OC[C@H]2O[C@](O)(CO)[C@@H](O)[C@@H]2O)[C@H](O)[C@@H](O)[C@@H]1O [Isomaltulose, 6-O-α-D-glucopyranosyl-(1→6)-β-D-fructofuranose] | – | – | – | – | – | – | – | – | – | Hydrolysis rate [%] ([4]; More stringent (16 units)): 79.0%; Hydrolysis rate [%] [4, 6]: 18.0%; Hydrolysis rate [%] [5]: 39.9%; Hydrolysis rate [%] ([5]; pH 7): 3.1%
5 | OC[C@H]1O[C@@H](O[C@H]2[C@H](O)[C@@H](O)C(O)O[C@@H]2CO)[C@H](O)[C@@H](O)[C@H]1O (some centres unmarked) [Lactose, reference compound] | – | – | – | – | 95.6 | – | – | – | – | Hydrolysis rate [%], incubation with lactase (lactase; listed as lactose): Nearly complete hydrolysis
6 | OC[C@H]1O[C@@H](O[C@H]2[C@H](O)[C@@H](O)[C@@H](O[C@]3(CO)O[C@H](CO)[C@@H](O)[C@@H]3O)O[C@@H]2CO)[C@H](O)[C@@H](O)[C@H]1O [Lactosucrose, reference compound] | – | – | – | – | – | 98.9 | – | – | 6.5 | content of butyrate formed at the end of the fermentations (human feces): about 6 mmol/L; Degradation rate (human feces; incubation time 7 (h), listed as lactosucrose): nearly completely metabolized; Degradation rate (human feces; incubation time 14 (h)): 100%
7 | OC[C@H]1O[C@H](O[C@H]2[C@H](O)[C@@H](O)[C@H](O)O[C@@H]2CO)[C@H](O)[C@@H](O)[C@@H]1O [Maltose] | – | – | – | – | – | – | – | Nearly complete hydrolysis | – | –
8 | OC[C@H]1O[C@@](CO)(O[C@H]2O[C@H](CO)[C@@H](O)[C@H](O)[C@H]2O)[C@@H](O)[C@@H]1O [Sucrose, reference compound] | 0 | 2 | 5 | 8 | – | – | – | – | – | Hydrolysis rate [%] ([4]; Standard (0.7 unit), 37° C., pH 7.0, listed as saccharose): Nearly complete hydrolysis
9 | Isomalt | – | – | – | – | – | – | – | – | – | Hydrolysis rate [%] ([4]; More stringent (16 units)): 52.4%; Hydrolysis rate [%] ([4]; More stringent (16 units), listed as isomalt): 52%; Hydrolysis rate [%] [4, 6]: 3.5%; Hydrolysis rate [%] ([4]; Standard (0.7 unit), 37° C., pH 7.0, listed as isomalt): partially broken down; Hydrolysis rate [%] [5]: 12.8%; Hydrolysis rate [%] ([5]; pH 7): 0%
10 | galactosyl lactose [Galactosyl-Lactose (Oligomate DP 3), reference compound] | – | – | – | – | – | 96.6 | 100 | – | 6.3 | content of butyrate formed at the end of the fermentations (human feces): about 6 mmol/L; Degradation rate (human feces; incubation time 7 (h), listed as galactosyl lactose): nearly completely metabolized; Degradation rate (human feces; incubation time 14 (h)): 99.5%
